Laboratory results published in patent US6339045B1, “N-(unsubstituted or substituted)-4-substituted-6-(unsubstituted or substituted)phenoxy-2-pyridinecarboxamides or thiocarboxamides, processes for producing the same, and herbicides” (Kureha Kagaku Kogyo Kabushiki Kaisha, priority 1995, dated 2002).

Tests used:
Assay in all cases: Herbicidal effect by foliage and soil treatment
Type in all cases: in vivo
Conditions in all cases: 10 g ai/10a, evaluated after 14 days
[1] = test system: wild chamomile (Matricaria chamomilla)
Procedure, shortened: (§1)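 Potted seedlings at cotyledon-to-bifoliate stage were sprayed with compound in Tween 20/water at a predetermined rate and grown in a greenhouse at 19 to 25° C. Growth was rated against untreated plants after 14 days.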

[2] = test system: black nightshade (Solanum nigrum)
Procedure, shortened: as §1

[3] = test system: cleavers (Galium aparine)
Procedure, shortened: as §1

[4] = test system: common blackjack (Bidens pilosa)
Procedure, shortened: as §1

[5] = test system: common chickweed (Stellaria media)
Procedure, shortened: as §1

[6] = test system: kediock (Sinapis arvensis)
Procedure, shortened: as §1

[7] = test system: sicklepod (Cassia obtusifolia)
Procedure, shortened: as §1

[8] = test system: field bindweed (Convolvulus arvensis)
Procedure, shortened: as §1

[9] = test system: redroot pigweed (Amaranthus retroflexus)
Procedure, shortened: as §1

[10] = test system: velvetleaf (Abutilon theophrasti)
Procedure, shortened: as §1

[11] = test system: ivyleafspeedwell (Veronica hederaefolia)
Procedure, shortened: as §1

| SMILES | herbicidal activity rating, MC (Matricaria chamomilla) [1] | herbicidal activity rating, SN (Solanum nigrum) [2] | herbicidal activity rating, GA (Galium aparine) [3] | herbicidal activity rating, BP (Bidens pilosa) [4] | herbicidal activity rating, SM (Stellaria media) [5] | herbicidal activity rating, SA (Sinapis arvensis) [6] | herbicidal activity rating, CO (Cassia obtusifolia) [7] | herbicidal activity rating, CA (Convolvulus arvensis) [8] | herbicidal activity rating, AR (Amaranthus retroflexus) [9] | herbicidal activity rating, AT (Abutilon theophrasti) [10] | herbicidal activity rating, VH (Veronica hederaefolia) [11] |
| --- | --- | --- | --- | --- | --- | --- | --- | --- | --- | --- | --- |
| COc1cc(Oc2cccc(OC(F)F)c2)nc(C(=O)NC(C)C)c1 [Compound I-38] | 4 (percentage of weeds killed was not less than 60% and less than 80%) | 5 (percentage of weeds killed was not less than 80%) | 5 (percentage of weeds killed was not less than 80%) | 2 (percentage of weeds killed was not less than 20% and less than 40%) | 4 (percentage of weeds killed was not less than 60% and less than 80%) | 5 (percentage of weeds killed was not less than 80%) | 4 (percentage of weeds killed was not less than 60% and less than 80%) | 4 (percentage of weeds killed was not less than 60% and less than 80%) | 5 (percentage of weeds killed was not less than 80%) | 4 (percentage of weeds killed was not less than 60% and less than 80%) | 5 (percentage of weeds killed was not less than 80%) |
| COc1cc(Oc2cccc(OC(F)(F)F)c2)nc(C(=O)Nc2ccccc2)c1 [Compound I-20, N-phenyl-4-methoxy-6-{3-(trifluoromethoxy)phenoxy}-2-pyridine carboxamide] | 4 (percentage of weeds killed was not less than 60% and less than 80%) | 5 (percentage of weeds killed was not less than 80%) | 5 (percentage of weeds killed was not less than 80%) | 5 (percentage of weeds killed was not less than 80%) | 5 (percentage of weeds killed was not less than 80%) | 5 (percentage of weeds killed was not less than 80%) | 5 (percentage of weeds killed was not less than 80%) | 4 (percentage of weeds killed was not less than 60% and less than 80%) | 5 (percentage of weeds killed was not less than 80%) | 4 (percentage of weeds killed was not less than 60% and less than 80%) | 5 (percentage of weeds killed was not less than 80%) |
| COc1cc(Oc2cccc(C(F)(F)F)c2)nc(C(=O)NCCCS(C)(=O)=O)c1 [Compound I-77] | 3 (percentage of weeds killed was not less than 40% and less than 60%) | 5 (percentage of weeds killed was not less than 80%) | 5 (percentage of weeds killed was not less than 80%) | 4 (percentage of weeds killed was not less than 60% and less than 80%) | 4 (percentage of weeds killed was not less than 60% and less than 80%) | 5 (percentage of weeds killed was not less than 80%) | 5 (percentage of weeds killed was not less than 80%) | 4 (percentage of weeds killed was not less than 60% and less than 80%) | 5 (percentage of weeds killed was not less than 80%) | 5 (percentage of weeds killed was not less than 80%) | 5 (percentage of weeds killed was not less than 80%) |
| COc1cc(Oc2cccc(C(F)(F)F)c2)nc(C(=O)NCCSC)c1 [Compound I-62] | 4 (percentage of weeds killed was not less than 60% and less than 80%) | 5 (percentage of weeds killed was not less than 80%) | 5 (percentage of weeds killed was not less than 80%) | 4 (percentage of weeds killed was not less than 60% and less than 80%) | 5 (percentage of weeds killed was not less than 80%) | 5 (percentage of weeds killed was not less than 80%) | 5 (percentage of weeds killed was not less than 80%) | 4 (percentage of weeds killed was not less than 60% and less than 80%) | 5 (percentage of weeds killed was not less than 80%) | 3 (percentage of weeds killed was not less than 40% and less than 60%) | 5 (percentage of weeds killed was not less than 80%) |
| COc1cc(Oc2cccc(C(F)(F)F)c2)nc(C(=O)Nc2ccc(Cl)cc2)c1 [Compound I-2] | 3 (percentage of weeds killed was not less than 40% and less than 60%) | 5 (percentage of weeds killed was not less than 80%) | 5 (percentage of weeds killed was not less than 80%) | 5 (percentage of weeds killed was not less than 80%) | 4 (percentage of weeds killed was not less than 60% and less than 80%) | 5 (percentage of weeds killed was not less than 80%) | 5 (percentage of weeds killed was not less than 80%) | 5 (percentage of weeds killed was not less than 80%) | 5 (percentage of weeds killed was not less than 80%) | 4 (percentage of weeds killed was not less than 60% and less than 80%) | 5 (percentage of weeds killed was not less than 80%) |
| CCNC(=O)c1cc(OC)cc(Oc2cccc(C(F)(F)F)c2)n1 [Compound I-51] | 4 (percentage of weeds killed was not less than 60% and less than 80%) | 5 (percentage of weeds killed was not less than 80%) | 5 (percentage of weeds killed was not less than 80%) | 3 (percentage of weeds killed was not less than 40% and less than 60%) | 5 (percentage of weeds killed was not less than 80%) | 5 (percentage of weeds killed was not less than 80%) | 5 (percentage of weeds killed was not less than 80%) | 4 (percentage of weeds killed was not less than 60% and less than 80%) | 5 (percentage of weeds killed was not less than 80%) | 5 (percentage of weeds killed was not less than 80%) | 5 (percentage of weeds killed was not less than 80%) |
